Experimental data from ChEMBL document CHEMBL5214895, “3-Hydroxy-propanamidines, a New Class of Orally Active Antimalarials Targeting Plasmodium falciparum” (J Med Chem, 2021).
Activity calls are given as the source filed them. The calls are words filed in the database; no cut-off is given here.

Legend:
[1] = AUC(0 to t) in mouse infected with Plasmodium berghei at 3 mg/kg, po administered as single dose and measured for 24 hrs by LC-MS/MS analysis; type: ADME, organism-based; set-up: dose 3 mg/kg, time 24 hrs, route po; conditions: in vivo
[2] = Cmax in mouse infected with Plasmodium berghei at 3 mg/kg, po administered as single dose and measured for 24 hrs by LC-MS/MS analysis; type: ADME, organism-based; set-up: time 24 hrs, dose 3 mg/kg, route po; conditions: in vivo
Plasmodium berghei [3] = test: Antimalarial activity against Plasmodium berghei infected in mouse assessed as reduction in parasitemia in blood at 3 mg/kg, po administered for 4 times starting from 4 to 72 hrs and measured after 96 hrs post infection (reference value: 0 %); type: functional; set-up: scale not given: the % may be the effect or the level left
Plasmodium falciparum [4] = test: Induction of drug resistance in Plasmodium falciparum Dd2 clone FL2-C4 assessed as fold increase in IC50 incubated for 72 hrs by SYBR green-based assay; type: functional
[5] = Metabolic stability in human liver microsomes assessed as intrinsic clearance; type: ADME, Microsome
Plasmodium berghei [6] = test: Antimalarial activity against Plasmodium berghei infected in mouse assessed as mean survival days at 30 mg/kg, po administered for 4 times starting from 4 to 72 hrs and monitered for 30 days (reference value: 4 days); type: functional; conditions: time 30 day
[7] = Elimination half life in mouse infected with Plasmodium berghei at 3 mg/kg, po administered as single dose and measured for 24 hrs by LC-MS/MS analysis; type: ADME, organism-based; conditions: in vivo, read-out: beta t1/2 (converted)
[8] = Cmax in mouse infected with Plasmodium berghei at 30 mg/kg, po administered as single dose and measured for 24 hrs by LC-MS/MS analysis; type: ADME, organism-based; set-up: dose 30 mg/kg, time 24 hrs, route po; conditions: in vivo
Plasmodium berghei [9] = test: Antimalarial activity against Plasmodium berghei infected in mouse assessed as mean survival days at 50 mg/kg, po administered for 4 times starting from 4 to 72 hrs and monitered for 30 days (reference value: 4 days); type: functional; conditions: time 30 day
[10] = AUC(0 to t) in mouse infected with Plasmodium berghei at 10 mg/kg, po administered as single dose and measured for 24 hrs by LC-MS/MS analysis; type: ADME, organism-based; set-up: time 24 hrs, dose 10 mg/kg, route po; conditions: in vivo
[11] = Observed AUC(0 to infinity) in mouse infected with Plasmodium berghei at 30 mg/kg, po administered as single dose and measured for 24 hrs by LC-MS/MS analysis; type: ADME, organism-based; set-up: dose 30 mg/kg, time 24 hrs, route po; conditions: in vivo
Plasmodium berghei [12] = test: Antimalarial activity against Plasmodium berghei infected in mouse assessed as reduction in parasitemia in blood at 50 mg/kg, po administered for 4 times starting from 4 to 72 hrs and measured after 96 hrs post infection (reference value: 0%); type: functional; set-up: scale not given: the % may be the effect or the level left
Plasmodium falciparum [13] = test: Antiplasmodial activity against multidrug resistant asexual blood stage Plasmodium falciparum Dd2 assessed as inhibition of parasite growth incubated for […] by HRP2-ELISA; type: functional, organism-based
[14] = AUC(0 to t) in mouse infected with Plasmodium berghei at 30 mg/kg, po administered as single dose and measured for 24 hrs by LC-MS/MS analysis; type: ADME, organism-based; set-up: dose 30 mg/kg, time 24 hrs, route po; conditions: in vivo
Plasmodium falciparum [15] = test: Antiplasmodial activity against sorbitol-synchronized early ring stage plasmodium falciparum NF54 trophozoites assessed as inhibition of parasite growth incubated for 72 hrs by SYBR green-based parasite susceptibility assay; type: functional, organism-based; conditions: NF54, 72 h
[16] = Cytotoxicity against human HeLa cells assessed as inhibition of cell growth incubated for 24 hrs by neutral red dye based analysis; type: toxicity
Plasmodium falciparum [17] = test: Inhibition of hemozoin formation in sorbitol-synchronized early ring stage plasmodium falciparum NF54 trophozoites assessed as reduction in hemozoin level at 2.5 times IC50 incubated for 28 hrs by flow cytometry analysis; type: functional
[18] = Chemical stability of compound in Tween20/ethanol/phosphate buffer at pH 2 assessed as drug degradation measured over 24 hrs; type: physicochemical; conditions: read-out: Drug degradation
Plasmodium falciparum [19] = test: Antiplasmodial activity against multidrug resistant asexual blood stage Plasmodium falciparum Dd2-B2 assessed as inhibition of parasite growth incubated for 72 hrs by SYBR green-based assay; type: functional, organism-based; conditions: Dd2-B2, 72 h
[20] = Metabolic stability in human liver microsomes assessed as parent compound remaining at 2 uM incubated for 40 mins in presence of NADPH by LC-MS/MS analysis; type: ADME, Microsome; conditions: read-out: Stability
[21] = biological target: Voltage-gated inwardly rectifying potassium channel KCNH2 (Homo sapiens, UniProt Q12809); test: Inhibition of hERG by fluorescence polarization assay; type: toxicity
[22] = Cytotoxicity against HEK293 cells assessed as inhibition of cell growth incubated for 24 hrs by neutral red dye based analysis; type: toxicity; conditions: human
[23] = Half life in mouse infected with Plasmodium berghei at 30 mg/kg, po administered as single dose and measured for 24 hrs by LC-MS/MS analysis; type: ADME, organism-based; conditions: in vivo
Plasmodium falciparum [24] = test: Antiplasmodial activity against hyper mutating Plasmodium falciparum Dd2 harboring proofreading-deficient DNA polymerase delta assessed as inhibition of parasite growth incubated for 72 hrs by SYBR green-based assay; type: functional, organism-based; conditions: Dd2, 72 h
[25] = Half life in mouse infected with Plasmodium berghei at 10 mg/kg, po administered as single dose and measured for 24 hrs by LC-MS/MS analysis; type: ADME, organism-based; conditions: in vivo
Plasmodium berghei [26] = test: Antimalarial activity against Plasmodium berghei infected in mouse assessed as reduction in parasitemia in blood at 10 mg/kg, po administered for 4 times starting from 4 to 72 hrs and measured after 96 hrs post infection (reference value: 0%); type: functional; set-up: scale not given: the % may be the effect or the level left
[27] = Elimination half life in mouse infected with Plasmodium berghei at 10 mg/kg, po administered as single dose and measured for 24 hrs by LC-MS/MS analysis; type: ADME, organism-based; conditions: in vivo, read-out: beta t1/2 (converted)
Plasmodium falciparum [28] = test: Induction of drug resistance in Plasmodium falciparum Dd2 clone FL3-C3 assessed as fold increase in IC50 incubated for 72 hrs by SYBR green-based assay; type: functional
[29] = Observed AUC(0 to infinity) in mouse infected with Plasmodium berghei at 3 mg/kg, po administered as single dose and measured for 24 hrs by LC-MS/MS analysis; type: ADME, organism-based; set-up: dose 3 mg/kg, time 24 hrs, route po; conditions: in vivo
[30] = Selectivity index, ratio of IC50 for cytotoxicity against human HepG2 cells to IC50 for antiplasmodial activity against chloroquine-sensitive asexual blood stage Plasmodium falciparum 3D7; type: toxicity, cell-based; conditions: read-out: Ratio IC50
[31] = Tmax in mouse infected with Plasmodium berghei at 30 mg/kg, po administered as single dose and measured for 24 hrs by LC-MS/MS analysis; type: ADME, organism-based; conditions: in vivo
[32] = Elimination half life in mouse infected with Plasmodium berghei at 30 mg/kg, po administered as single dose and measured for 24 hrs by LC-MS/MS analysis; type: ADME, organism-based; conditions: in vivo, read-out: beta t1/2 (converted)
[33] = Tmax in mouse infected with Plasmodium berghei at 10 mg/kg, po administered as single dose and measured for 24 hrs by LC-MS/MS analysis; type: ADME, organism-based; conditions: in vivo
[34] = Tmax in mouse infected with Plasmodium berghei at 3 mg/kg, po administered as single dose and measured for 24 hrs by LC-MS/MS analysis; type: ADME, organism-based; conditions: in vivo
[35] = Chemical stability of compound in Tween20/ethanol/phosphate buffer at pH 7.5 assessed as drug degradation measured over 24 hrs; type: physicochemical; conditions: read-out: Drug degradation
[36] = Cmax in mouse infected with Plasmodium berghei at 10 mg/kg, po administered as single dose and measured for 24 hrs by LC-MS/MS analysis; type: ADME, organism-based; set-up: dose 10 mg/kg, time 24 hrs, route po; conditions: in vivo
[37] = Cytotoxicity against human HepG2 cells assessed as inhibition of cell growth incubated for 24 hrs by neutral red dye based analysis; type: toxicity
Plasmodium falciparum [38] = test: Inhibition of hemozoin formation in sorbitol-synchronized early ring stage plasmodium falciparum NF54 trophozoites assessed as increase in free heme level at 2.5 times IC50 incubated for 28 hrs by flow cytometry analysis; type: functional
Plasmodium falciparum [39] = test: Antiplasmodial activity against chloroquine-sensitive asexual blood stage Plasmodium falciparum 3D7 assessed as inhibition of parasite growth incubated for […] by HRP2-ELISA; type: functional, organism-based
[40] = Observed AUC(0 to infinity) in mouse infected with Plasmodium berghei at 10 mg/kg, po administered as single dose and measured for 24 hrs by LC-MS/MS analysis; type: ADME, organism-based; set-up: dose 10 mg/kg, time 24 hrs, route po; conditions: in vivo
Plasmodium berghei [41] = test: Antimalarial activity against Plasmodium berghei infected in mouse assessed as reduction in parasitemia in blood at 30 mg/kg, po administered for 4 times starting from 4 to 72 hrs and measured after 96 hrs post infection (reference value: 0%); type: functional; set-up: scale not given: the % may be the effect or the level left
[42] = Half life in mouse infected with Plasmodium berghei at 3 mg/kg, po administered as single dose and measured for 24 hrs by LC-MS/MS analysis; type: ADME, organism-based; conditions: in vivo

Voltage-gated inwardly rectifying potassium channel KCNH2, sequence (Q12809 whole entry): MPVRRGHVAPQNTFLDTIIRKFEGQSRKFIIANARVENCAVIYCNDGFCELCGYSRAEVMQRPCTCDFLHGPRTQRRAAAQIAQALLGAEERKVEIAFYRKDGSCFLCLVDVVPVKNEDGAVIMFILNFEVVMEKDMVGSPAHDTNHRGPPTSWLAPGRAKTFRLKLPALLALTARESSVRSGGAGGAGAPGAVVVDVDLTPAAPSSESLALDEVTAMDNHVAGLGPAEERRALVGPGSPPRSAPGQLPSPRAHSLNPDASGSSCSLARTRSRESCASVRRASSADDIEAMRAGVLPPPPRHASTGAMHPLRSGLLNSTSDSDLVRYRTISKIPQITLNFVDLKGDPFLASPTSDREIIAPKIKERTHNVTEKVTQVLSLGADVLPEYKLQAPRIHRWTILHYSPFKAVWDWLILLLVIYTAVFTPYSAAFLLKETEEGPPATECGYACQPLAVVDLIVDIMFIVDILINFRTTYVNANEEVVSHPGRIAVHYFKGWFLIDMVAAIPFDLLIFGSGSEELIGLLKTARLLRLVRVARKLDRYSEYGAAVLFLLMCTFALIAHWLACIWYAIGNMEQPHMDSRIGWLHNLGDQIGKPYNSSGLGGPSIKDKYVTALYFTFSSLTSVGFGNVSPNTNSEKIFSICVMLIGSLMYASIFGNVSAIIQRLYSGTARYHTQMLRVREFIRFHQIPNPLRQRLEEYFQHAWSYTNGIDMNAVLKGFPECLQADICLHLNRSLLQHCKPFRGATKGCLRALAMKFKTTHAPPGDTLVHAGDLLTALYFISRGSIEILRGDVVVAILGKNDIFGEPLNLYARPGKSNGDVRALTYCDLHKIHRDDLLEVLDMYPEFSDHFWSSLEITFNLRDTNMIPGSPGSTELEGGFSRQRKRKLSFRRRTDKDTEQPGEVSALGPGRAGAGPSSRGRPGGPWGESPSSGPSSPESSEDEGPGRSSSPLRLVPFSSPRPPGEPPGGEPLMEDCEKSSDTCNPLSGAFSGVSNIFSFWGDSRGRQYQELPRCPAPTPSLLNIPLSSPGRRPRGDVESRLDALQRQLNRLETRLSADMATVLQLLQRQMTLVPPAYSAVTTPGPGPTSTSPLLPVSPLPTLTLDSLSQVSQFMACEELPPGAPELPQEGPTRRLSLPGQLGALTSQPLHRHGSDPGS

COc1ccc(/N=C(\N)CC(O)c2cc3c(F)cc(F)cc3c3cc(C(F)(F)F)ccc23)cc1.Cl (configuration not stated) showed an AUCt [1] of 20.4 ng·h/mL, a Cmax [2] of 3.3 ng/mL and an Activity (Plasmodium berghei [3]) of 0%. It also gave a fold change (FC) (Plasmodium falciparum [4]) of 3, a CLH [5] of 9 µL/min/mg and an MSD (Plasmodium berghei [6]) of 17 days. The half-life [7] was 7.58 min, the Cmax [8] was 57.3 ng/mL and the MSD (Plasmodium berghei [9]) was 27 days. For the same compound, the AUCt [10] was 192.1 ng·h/mL, the AUC [11] was 848.1 ng·h/mL and the Activity (Plasmodium berghei [12]) was 99.8%. For the same compound, the IC50 (Plasmodium falciparum [13]) was 12 nM, the AUCt [14] was 783.1 ng·h/mL and the IC50 (Plasmodium falciparum [15]) was 8.4 nM. The IC50 at 24 h [16] was 46100 nM, the inhibition (Plasmodium falciparum [17]) was “Active” and the degraded at 24 h [18] was 0.1%. It also gave an IC50 (Plasmodium falciparum [19]) of 15.3 nM, a remaining at 40 min, 2 µM [20] of 86% and an IC50 [21] of 190 nM. It also gave an IC50 at 24 h [22] of 36800 nM, a t1/2 [23] of 421 min and an IC50 (Plasmodium falciparum [24]) of 15 nM. For the same compound, the t1/2 [25] was 248 min, the Activity (Plasmodium berghei [26]) was 99.9% and the half-life [27] was 7.91 min. For the same compound, the fold change (FC) (Plasmodium falciparum [28]) was 3, the AUC [29] was 21.5 ng·h/mL and the selectivity ratio [30] was 860. It also gave a Tmax [31] of 60 min, a half-life [32] of 4.18 min and a Tmax [33] of 60 min. It also gave a Tmax [34] of 60 min, a degraded at 24 h [35] of 1% and a Cmax [36] of 23 ng/mL. For the same compound, the IC50 at 24 h [37] was 4300 nM, the inhibition (Plasmodium falciparum [38]) was “Active” and the IC50 (Plasmodium falciparum [39]) was 5 nM. The AUC [40] was 199.7 ng·h/mL, the Activity (Plasmodium berghei [41]) was 99.9% and the t1/2 [42] was 313 min.
